This is an account of results in patent US8936807B2, “Use of the cathelicidin LL-37 and derivatives thereof for wound healing” (Lipopeptide AB, priority 2003, dated 2015).

What all share (type): cell-based, human
Assay [1] relates to HaCat cells. Kind of assay: Proliferation of HaCat cells assessed by flowcytometry and Trypan-Blue. As to conditions: EGF 1.7 nM, 10% serum. The procedure:
HaCat cells were used for these experiments. HaCat cells are an immortalized human keratinocyte cell line (Boukamp et al., J Cell Biol 106:761-771, 1988), which is suitable for experimental keratinocyte research. HaCat cells were cultured in medium (DMEM, +10% FCS and PEST). Both types of cell cultures were treated with synthetic, bioactive LL-37 (lot YS 5253). […] Cells were harvested at different time-points (24 h, 48 h, 72 h and 96 h) and counted by flowcytometry (Becton-Dickinson) and stained by Trypan-Blue to evaluate viability. […] Proliferation and viability were also ascertained by measuring mitochondrial activity (WST-1, Roche, Cook et al. Anal Biochem 179:1-7, 1989).

The test system of assay [2] is HaCat cells. Kind of assay: Proliferation and viability of HaCat cells measured by mitochondrial activity (WST-1). As to conditions: EGF 1.7 nM, 10% serum, 48 h. The procedure:
HaCat cells were used for these experiments. HaCat cells are an immortalized human keratinocyte cell line (Boukamp et al., J Cell Biol 106:761-771, 1988), which is suitable for experimental keratinocyte research. HaCat cells were cultured in medium (DMEM, +10% FCS and PEST). Both types of cell cultures were treated with synthetic, bioactive LL-37 (lot YS 5253). In addition a mixture of LL-37 (114 μg/ml) and CPL-Galactolipid (0.2%) in medium containing serum at either 2 or 10% was added to evaluate the capacity to increase proliferation and inhibit cytotoxicity. Cells were harvested at different time-points (24 h, 48 h, 72 h and 96 h) and counted by flowcytometry (Becton-Dickinson) and stained by Trypan-Blue to evaluate viability. […] Proliferation and viability were also ascertained by measuring mitochondrial activity (WST-1, Roche, Cook et al. Anal Biochem 179:1-7, 1989).

Assay [3] concerns HaCat cells. Nature of the assay: Proliferation of HaCat cells assessed by 3H-Thymidine incorporation. As to conditions: 10% serum, 96 Hours; for Increased Proliferation (%): vs control 0 μg/ml. As to the method:
HaCat cells were cultured in medium (DMEM, +10% FCS and PEST). HaCaT cells were plated in 96 well plates (Falcon, USA) at the concentration of 2000 cells per well. Cells were plated at −48 hours and stimulated with different concen-trations of synthetic LL-37, LL-36, and LL-38 peptide by hour 0 and after 48 hours.
The testing was done in one experiment with 6 wells in each condition. […] of ^3H-Thymidine (THYMIDINE, [METHYL-^3H]-740.0 GBq/mmol (20.00 Ci/mmol) 1.0 ml of Ethanol:Water, 7:3, Perkin Elmer Life Sciences Inc. Boston Mass., USA) was added to each well and incubated for 12-17 hours. Proliferation was evaluated by ^3H-Thymidine incorporation a liquid scintilator (MicroBeta Perkin Elmer Life Sciences Inc. Boston Mass., USA) after 72 and 96 hours.

In the case of “EGF: EGF, the golden standard for epithelial cell proliferation, used at 1.7 nM [reference compound]”, the “Number of Cells (Mean)” value with HaCat cells [1] (96 h) stood at 42000; in the assay with HaCat cells [1] (no lipid, 72 h) it was 85050; with HaCat cells [1] (with lipid 0.2%, 72 h), 87640. Besides, the “Increased Proliferation (%)” value in the assay with HaCat cells [1] (96 h, vs baseline (-EGF)) is given as 30%; in the assay on HaCat cells [1] (no lipid, 72 h, vs baseline) it was 54%; with HaCat cells [1] (with lipid 0.2%, 72 h, vs baseline), 58%; in the assay with HaCat cells [2] (vs baseline (-EGF)), 77%. This substance came in with an Absorbance in the assay on HaCat cells [2] of 1.107.
Consider “LLGDFFRKSKEKIGKEFKRIVQRIKDFLRNLVPRTE (Synthetic Peptide LL-36)”, for which the “Counts Per Minute (Mean)” value in the assay with HaCat cells [3] (LL-36 1.00 μg/ml) is reported as 86253 Counts Per Minute; in the assay with HaCat cells [3] (LL-36 5.00 μg/ml) it was 116381 Counts Per Minute; in the assay on HaCat cells [3] (LL-36 10.00 μg/ml) it was 70157 Counts Per Minute; in the assay on HaCat cells [3] (LL-36 25.00 μg/ml), 72674 Counts Per Minute; with HaCat cells [3] (LL-36 50.00 μg/ml), 68560 Counts Per Minute. The “Increased Proliferation (%)” value with HaCat cells [3] (LL-36 1.00 μg/ml) is on record as 24%; in the assay on HaCat cells [3] (LL-36 5.00 μg/ml) it was 68%; with HaCat cells [3] (LL-36 10.00 μg/ml), 1%; in the assay with HaCat cells [3] (LL-36 25.00 μg/ml), 5%; with HaCat cells [3] (LL-36 50.00 μg/ml), -1%.
Turning to “LLGDFFRKSKEKIGKEFKRIVQRIKDFLRNLVPRTESS (Synthetic Peptide LL-38)”, the “Counts Per Minute (Mean)” value was found to be 82008 Counts Per Minute in the assay with HaCat cells [3] (LL-38 1.00 μg/ml); 68694 Counts Per Minute in the assay on HaCat cells [3] (LL-38 5.00 μg/ml); 57293 Counts Per Minute in the assay on HaCat cells [3] (LL-38 10.00 μg/ml); 54294 Counts Per Minute in the assay on HaCat cells [3] (LL-38 25.00 μg/ml); 48701 Counts Per Minute in the assay with HaCat cells [3] (LL-38 50.00 μg/ml). The “Increased Proliferation (%)” value in the assay on HaCat cells [3] (LL-38 1.00 μg/ml) was 4%; with HaCat cells [3] (LL-38 5.00 μg/ml), −13%; in the assay on HaCat cells [3] (LL-38 10.00 μg/ml), −28%; in the assay on HaCat cells [3] (LL-38 25.00 μg/ml) it was −31%; in the assay with HaCat cells [3] (LL-38 50.00 μg/ml) it was −39%.
